The results in this text go back to patent US20260309621A1, “HIGH THROUGHPUT OPTICAL ASSAY FOR SCREENING HEMOGLOBIN OXYGEN AFFINITY MODIFYING DRUG” (CASE WESTERN RESERVE UNIVERSITY, priority 2023, published 2026).

One series concerns hemoglobin (HbAA, HbSS). Kind of series: Hemoglobin-oxygen dissociation assay (Soret band bathochromic shift with partial chemical deoxygenation by Na2S2O5). The series is classed as biochemical, human. The conditions noted are these: for Peak wavelength: pH 6.9, pO2 = 75 mmHg, mean ± SEM; for peak wavelength, repeatability: ~20 mmHg pO2, mean ± SEM. The text has this: Herein, we take advantage of the unique optical shift of Hb's Soret band and combine it with partial chemical deoxygenation to optically measure Hb-O2 dissociation under physiologically acidic conditions at pH 6.9.
(§1) Blood samples were collected from healthy donors and individuals with SCD as part of standard clinical care. We received ethical approval from the University Hospitals of Cleveland Medical Center's Institutional Review Board (IRB) and Joint Clinical Research Ethics Committee in Kampala, Uganda, for the Naïve SCD group. All participants in the study provided written informed consent. When collected, blood samples were de-identified, kept at 4 degrees Celsius, and processed within 6 hours of receipt. […] Hemoglobin profiles of samples were verified using the reference standard high performance liquid chromatography (HPLC, VARIANT™ II, Bio-Rad Laboratories, Inc., Hercules, California). The results were presented as a percentage of HbS, A2, and F; the remainder was considered HbA since the values were normalized to 100%. Intracellular hemoglobin concentration for all blood samples was measured under normoxia with complete blood count (CBC, Hemavet 950FS, Hematology System, Draw Scientific Inc.; Miami, Florida).
Three independent sample preparations were performed to test different hypotheses. (1) Whole blood, (2) isolated intact red blood cells (RBC), and (3) purified hemoglobin (lysed samples).
For whole blood preparation, 75 μl of whole blood was mixed with pH 6.9 buffers at a ratio of 1:300 and incubated for 10 minutes at room temperature before deoxygenation.
For intact RBC sample preparation, whole blood was centrifuged at 500 g for 10 minutes in a microcentrifuge (model 21r; Thermo Scientific, Waltham, MA). The plasma and buffy coat were removed via aspiration. The RBCs were washed thrice with phosphate-buffered saline (PBS) at pH 7.4 (Gibco, Thermo Scientific, Waltham, MA). Next, 45 μL of the washed RBC suspension was diluted with a pH 6.9 buffer solution until the baseline hematocrit of 0.2% was achieved. Before deoxygenation, RBCs were incubated for 10 minutes in a pH 6.9 buffer solution at room temperature.
For purified hemoglobin preparation; lysed samples were prepared. Hemolysis was carried out by sonication for 30 seconds (Hemex Health; Portland, OR). Following hemolysis, the lysed cell suspension was added to various pH buffer solutions and centrifuged at 2000 g for 1 hour. Three hundred μl of the cell lysate was removed, and the supernatant was dis-carded. Cell lysates were diluted in 700 μl of the specific pH buffer solution and centrifuged at 2000 g for 1 hour. The 1 ml of pH buffer solution and cell lysate were filtered through a 0.02 μm Millipore membrane. The hemoglobin concentration in the lysed sample was determined using the hemoglobin [COMPOUND LEFT OUT] (HiCN) method and measured with a cuvette spectrophotometer at 540 nm. Each purified lysed sample was diluted with different pH solutions (pH 6.9, 7.2, 7.4, 8.0, and 10.0) to achieve a hemoglobin concentration of 2.8 mg dl^−1, determined as the baseline for lysed sample analysis.

For a further series, the target named is T1, HbSS (Homo sapiens, UniProt P68871+P69905, E7V).
T1 construct: whole blood, washed red cells or purified hemoglobin
Put plainly: 96-well high throughput optical absorption assay: Soret band peak wavelength shift of deoxygenated SCD samples treated with oxygen modifying molecules. The class given is biochemical. The text has this: FIGS. 3(A-C) illustrate varying concentration of voxelotor tested using 96 well plates optical assay. (A) Representative 96 well plate, showing the arrangement of a single sample analyzed. […] (B) Insert from the 12 columns of the 96 well plate, showing the Soret band peak wavelength shift in the wavelength range of 380-450 nm.
FIGS. 4(A-B) illustrate increasing the concentration of voxelotor induces a decrease in the peak wavelength of SCD samples (A) Insert from the 12 columns of the 96 well plate, showing the Soret band peak wavelength shift in the wavelength range of 380-450 nm.
FIGS. 5(A-B) illustrate varying concentration of PKR activator tested using 96 well plates optical assay. (A) Insert from the 12 columns of the 96 well plate, showing the Soret band peak wavelength shift in the wavelength range of 380-450 nm.
FIGS. 6(A-B) illustrate varying concentrations of aptamer induce peak wavelength shift. (A) Soret band peak wavelength shifts for oxygenated blood with aptamer deoxygenated blood with aptamer, untreated blood, and voxelotor treatment were compared in the wavelength range of 350-450. Increasing the concentration of aptamer from 0.2 dosages (B) Increasing the concentration of aptamer from 0.2 dosages to 0.25 induces a reduction in peak wavelength from 416 nm to 414 nm.
This example relates to a 96-well high throughput assay optical absorption spectroscopic assay that can be used to assess the rate of oxygen release from hemoglobin.
Whole blood, purified hemoglobin, or washed red blood cells (RBCs) are mixed with a buffer solution at 6.8 or 8. Additional hemoglobin or RBCs to an acidic buffer changes the molecular conformational structure of hemoglobin. Determined volume of the analyte (including but not limited to whole blood, purified hemoglobin, or red blood cells (RBCs)) are mixed with buffer are added to each of the 12/96/384 well plates. The analytes are then chemically deoxygenated with a determined concentration of sodium metabisulphite an approach to deplete oxygen from hemoglobin molecules. The solution is analyzed using a spectroscopic microplate reader. […]

Another series relates to purified hemoglobin. Put plainly: Circular dichroism spectra of purified hemoglobin at pH 6.9. The class given is physicochemical, human. Conditions: purified Hb, pH 6.9, 75 mmHg, deoxy. The text has this: The circular dichroism (CD) spectra, like the absorption spectra in the Soret and visible range, reveal the molecular structure of the hemoglobin globin and heme groups. […] CD spectra were collected between 190 and 650 nm wavelength on a Jasco J-1500 Spectropolarimeter with a 1 mm quartz cuvette and a scan rate of 4 seconds. The recorded spectra were background subtracted, accounting for a pH 6.9 buffer. The data was baselined and smoothed in the Spectra Manager software (Release 2018; Version 2.15.01).
For orientation: CD spectra are sensitive to the conformation of chiral molecules.

A further series concerns HbSS patient whole blood. Kind of series: Peak wavelength shift of whole blood from SCD patients stratified by treatment. Details: species or system human. On the procedure: as §1, with “The results were presented as a percentage of HbS, A2, and F; the remainder was considered HbA since the values were normalized to 100%.” left out
During testing with either oxygenation or deoxygenation, samples were analyzed in three microplate wells using a spectroscopy microplate reader Spectramax M2e (Molecular Devices, San Jose, CA), over a spectral range of 350-750 nm, with a wavelength resolution of 2 nm and at a customized microplate well reading setting at room temperature. […] (3) For each sample and at concentration of 0.053 M Na2S2O5, the bathochromic wavelength shift and intensity were assessed for further analysis (FIG. 7D). […]

Series [1] has as its system HbAA and HbSS whole blood. Put plainly: pO2 reduction in whole blood by Na2S2O5 (blood gas analyzer). Set-up: species or system human. On the procedure: All samples were initially exposed to ambient air for 600 seconds. The oxygen partial pressure (pO2), 21% of atmospheric pressure (773 mmHg), was then normalized to 162 mmHg PO2 during oxygenation (FIG. 7A). Sodium metabisulphite (Na2S2O5) was used to deoxygenate the samples chemically (FIG. 7B). Predetermined amounts of sodium metabisulphite were mixed with 2 ml of the prepared samples for 90 seconds using a vortexer (Scientific Industries, Bohemia, NY). The concentrations of Na2S2O5 used with purified hemoglobin were 0.039 M, 0.046 M, 0.053 M, 0.059 M, 0.066 M, 0.079 M, and 0.082 M, which corresponded to a gradual reduction in the oxygen partial pressure in the samples. For whole blood and RBC analyses, we used 0.053 M of Na2S2O (17-fold more molecules than Hb molecules in solution) to achieve partial deoxygenation (Table 1). A blood gas analyzer (Nova Starter Pro, Nova BioMed, Boston, Massachusetts) was used to confirm the deoxygenation levels at those Na2S2O5 concentrations.
We used sodium metabisulphite (Na2S2O5) to deoxygenate purified hemoglobin, intact RBCs, or whole blood (FIGS. 7A & B). […] At elevated concentrations of Na2S2O5, corresponding to high levels of deoxygenation or pO2 close to 30 mmHg, the curve plateaus (FIG. 8).

On to “purified Hb: purified hemoglobin (lysed samples)”, for which the “peak wavelength of purified Hb with increasing Hb concentration” value in the series with hemoglobin (HbAA, HbSS) (purified Hb 0.3-11.2 mg/dl, FIG. 13) is 420±0.2.
Turning to `CC(C)n1nccc1-c1ncccc1COc1cccc(O)c1C=O` [voxelotor], at HbSS (63, 118, 211 and 421 μM Vox, Mann-Whitney, FIG. 4), the “difference in peak wavelength shift between deoxy HbSS and deoxy HbSS+Vox” value is recorded as “Significate differences”. In addition, at HbSS (voxelotor, 3 hours incubation, varying concentrations), the “peak wavelength shift of treated SCD samples compared to untreated SCD samples” value is reported as “reduced peak wavelength shift”. For the same molecule, the “effect of increasing concentration on oxygen affinity of HbSS” value at HbSS (voxelotor, reduction in peak wavelength shift to that of HbAA, FIG. 4) is “increases the oxygen affinity of HbSS”.
Consider HbAA: healthy hemoglobin, for which the “peak wavelength, fully oxygenated” value with hemoglobin (HbAA, HbSS) (162 mmHg pO2, all pH values) was 414 nm. Further, the Peak wavelength with hemoglobin (HbAA, HbSS) (RBCs) is recorded as 418.0 ± 0.56 (n = 15); in the series on hemoglobin (HbAA, HbSS) (purified hemoglobin) it was 417.2 ± 0.78 (n = 23); in the series with hemoglobin (HbAA, HbSS) (whole blood), 415.3 ± 0.23 (n = 15). For the same molecule, the “peak wavelength, repeatability” value with hemoglobin (HbAA, HbSS) (User1, whole blood) is recorded as 414.9±0.11; with hemoglobin (HbAA, HbSS) (User2, whole blood), 415.1±0.05. For the same molecule, the “area under the peak” value in the series with hemoglobin (HbAA, HbSS) (whole blood, FIG. 10I, pH 6.9, 75 mmHg pO2) is 37.2±0.8. Also, the FWHM in the series with hemoglobin (HbAA, HbSS) (whole blood, FIG. 10J, pH 6.9, 75 mmHg pO2) came to 24.3±0.82. The “CD Soret peak, partially deoxygenated” value in the series on purified hemoglobin worked out at 425 nm.
On to `NC(=O)NO` [hydroxyurea], for which the “peak wavelength shift differences, oxygenated samples” value with HbSS patient whole blood (Hu HbSS, oxygenated, FIG. 11C) is “No significant differences”. In the series with HbSS patient whole blood (hydroxyurea (Hu HbSS=15), deoxygenated 75 mmHg, pH 6.9, FIG. 11C), the “bathochromic shift differences between HbAA, HbAS and HbSS stratified by treatment” value is reported as “significant differences”.
As for `O=S([O-])S(=O)(=O)[O-].[Na+].[Na+]` [Na2S2O5, sodium metabisulfite], the “pO2 in whole blood with increased Na2S2O5 concentration” value in series [1] (0-0.08 M Na2S2O5, 4 minutes, pH 6.9, 7.2, 7.4, 8.0, HbAA and HbSS, n=5, FIG. 8) is given as 20-40 mmHg. Further, in series [1] (0.053 M Na2S2O5), the deoxygenation of hemoglobin entry is “partial deoxygenation of hemoglobin” and the “pO2 of deoxygenated samples” value was 75 mmHg. Further, the “min. pO2 in HbSS whole blood” value in series [1] (0.053 M Na2S2O5, FIG. 8B) is “around 10 mmHg”.
